From article PMC6364417, “Kinase inhibitor library screening identifies synergistic drug combinations effective in sensitive and resistant melanoma cells” (Journal of Experimental & Clinical Cancer Research : CR, 2019)

Key:
Assay in all cases: Kinase inhibitor library screening, PrestoBlue cell viability, 1 or 10 μM, 72 h
[1] = system: A375-GP cells (Dabrafenib-resistant); details: A375 GP; for cell viability (kinase inhibitor library screening): in %
[2] = system: 501Mel-GP cells (Dabrafenib-resistant); details: 501Mel GP, in %
[3] = system: 501Mel-XP cells (Vemurafenib-resistant); details: 501Mel XP, in %
[4] = system: IGR37-GP cells (Dabrafenib-resistant); details: IGR37 GP
IGR37 cells (parental) = details: IGR37 Parental, in %
[5] = system: IGR37-XP cells (Vemurafenib-resistant); details: IGR37 XP
A375 cells (parental) = details: A375 Parental; for cell viability (kinase inhibitor library screening): in %
501Mel cells (parental) = details: 501Mel Parental, in %
Method in brief: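 Cells are treated with each inhibitor at 1 or 10 μM, incubated 72 h, then PrestoBlue reagent is added and the plate is read. Data are normalised to untreated cells.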

[6] = system: A375-XP cells (Vemurafenib-resistant); details: A375 XP; for cell viability (kinase inhibitor library screening): in %

Structure (SMILES)	cell viability (kinase inhibitor library screening) ([1]; 1μΜ)	cell viability (kinase inhibitor library screening) ([1]; 10μΜ)	cell viability (kinase inhibitor library screening) ([2]; 1μΜ)	cell viability (kinase inhibitor library screening) ([2]; 10μΜ)	cell viability (kinase inhibitor library screening) ([3]; 1μΜ)	cell viability (kinase inhibitor library screening) ([3]; 10μΜ)	cell viability (kinase inhibitor library screening) ([4]; 1μΜ, in %)	cell viability (kinase inhibitor library screening) ([4]; 10μΜ, in %)	cell viability (kinase inhibitor library screening) (IGR37 cells (parental); 1μΜ)	cell viability (kinase inhibitor library screening) (IGR37 cells (parental); 10μΜ)	cell viability (kinase inhibitor library screening) ([5]; 1μΜ, in %)	cell viability (kinase inhibitor library screening) ([5]; 10μΜ, in %)	cell viability (kinase inhibitor library screening) (A375 cells (parental); 1μΜ)	cell viability (kinase inhibitor library screening) (A375 cells (parental); 10μΜ)	cell viability (kinase inhibitor library screening) (501Mel cells (parental); 1μΜ)	cell viability (kinase inhibitor library screening) (501Mel cells (parental); 10μΜ)	cell viability (kinase inhibitor library screening) ([6]; 10μΜ)	cell viability (kinase inhibitor library screening) ([6]; 1μΜ)	further results
COc1cc2nccc(Oc3ccc(NC(=O)C4(C(=O)Nc5ccc(F)cc5)CC4)cc3)c2cc1OC [XL-184 free base (Cabozantinib)]	97.8	41.3	76.7	38.8	58.9	24.9	96.8	14.8	94.2	42.6	90.6	3.1	98.4	40.5	90.2	73.6	51.6		
C[C@@H](N)[C@H]1CC[C@H](C(=O)Nc2ccncc2)CC1.Cl.Cl [Y-27632 2HCl]	97.3	96.3		87.8	90.1	88.2	98.0	91.2		97.4	97.8	70.6		91.8	96.3		107.2	103.7	
Nc1ccc(C(=O)Nc2cccc(-c3nc(N4CCOCC4)c4oc5ncccc5c4n3)c2)cn1 [YM201636]																			Cell viability in kinase inhibitor library screening, A375 GP, 1μΜ ([1]; 1μΜ, 72 h): 96.0; Cell viability in kinase inhibitor library screening, A375 GP, 10μΜ ([1]; 10μΜ, 72 h): 53.2; Cell viability in kinase inhibitor library screening, 501Mel GP, 10μΜ ([2]; 10μΜ, 72 h): 31.8; Cell viability in kinase inhibitor library screening, 501Mel XP, 1μΜ ([3]; 1μΜ, 72 h): 91.0; Cell viability in kinase inhibitor library screening, 501Mel XP, 10μΜ ([3]; 10μΜ, 72 h): 17.1; Cell viability in kinase inhibitor library screening, IGR37 GP, 10μΜ ([4]; 10μΜ, 72 h): 3.3%; Cell viability in kinase inhibitor library screening, IGR37 GP, 1μΜ ([4]; 1μΜ, 72 h, in %): 56.3; Cell viability in kinase inhibitor library screening, IGR37 Parental, 1μΜ (IGR37 cells (parental); 1μΜ, 72 h): 90.0; Cell viability in kinase inhibitor library screening, IGR37 Parental, 10μΜ (IGR37 cells (parental); 10μΜ, 72 h): 53.4; Cell viability in kinase inhibitor library screening, IGR37 XP, 10μΜ ([5]; 10μΜ, 72 h): 1.2%; Cell viability in kinase inhibitor library screening, IGR37 XP, 1μΜ ([5]; 1μΜ, 72 h, in %): 35.0; Cell viability in kinase inhibitor library screening, A375 Parental, 10μΜ (A375 cells (parental); 10μΜ, 72 h): 56.6; Cell viability in kinase inhibitor library screening, A375 Parental, 1μΜ (A375 cells (parental); 1μΜ, 72 h): 99.8; Cell viability in kinase inhibitor library screening, 501Mel Parental, 10μΜ (501Mel cells (parental); 10μΜ, 72 h): 44.1; Cell viability in kinase inhibitor library screening, A375 XP, 1μΜ ([6]; 1μΜ, 72 h): 100.1; Cell viability in kinase inhibitor library screening, A375 XP, 10μΜ ([6]; 10μΜ, 72 h): 52.8
Cc1ccc(NC(=O)c2cccc(N(C)C)c2)cc1NC(=O)c1ccc(O)cc1 [ZM 336372]		82.7	108.5	81.6	90.4	83.5	99.1	96.2	102.6	105.1	108.8	93.5	103.4	91.8	98.4	89.6	95.8	103.8	
